Experimental data taken from patent US20150307938A1, “METHOD TO IDENTIFY A NOVEL CLASS OF IMMUNOLOGIC ADJUVANTS” (Lancell, L.L.C., priority 2011, published 2015).
Marks after values point to notes of the source that are not given here.

Tested on: full thickness skin
Assay: Whole genome array of skin gene expression after topical DBP (time course)
Type: in vivo, C57BL/6J mice
Protocol: Mice: C57BL/6J female mice obtained from The Jackson Laboratory were used between 8 and 12 weeks of age.
Treatment: Mice were untreated or treated topically on the dorsal side of each ear with […] of dibutylphthalate (DBP). At the designated time points after treatment, the animals were euthanized and the ears washed with 70% isopropanol. Full thickness skin was obtained from the dorsal side of both ears and placed immediately in liquid nitrogen. The time between euthanasia and placement of both skin samples in liquid nitrogen was less than 1 minute. Each sample for RNA extraction contained two dorsal ear skin samples obtained from a single mouse both of whose ears received the same treatment.
RNA Extraction: While in liquid nitrogen, the skin was pulverized with a motorized mortar and pestle (CryoGrinder), transferred by inversion of the mortar directly into 1.5 ml cryogenic vials (Nalgene) and stored in liquid nitrogen until RNA extraction. Total RNA from both ears was extracted by homogenization (Pro200) in TRIzol Reagent (Invitrogen) with 7.5 μg of RNase-free glycogen added to the mixture, according to the manufacturer's directions. The RNA was purified on a solid phase RNeasy MinElute Cleanup column (Qiagen) and eluted with 17 μL of RNase-free water. The samples were stored at −20° C. until use.
Quantification of RNA: RNA yields were quantified by UV absorption using a NanoDrop NG-1000 spectrophotometer, where 1 AU 260 equals 40 μg RNA/ml. Purity was estimated by the 260 and 280 nm absorbance ratio; values between 1.7 and 2.1 were considered acceptable.
Assessment of RNA Quality: The quality of sample RNA was assessed using a RNA 6000 LABCHIP Kit on an Agilent 2100 Bioanalyzer. The Bioanalyzer determines the integrity/purity of the RNA samples and permits the screening of total and mRNA sample degradation and ribosomal RNA contamination. An RNA 6000 ladder was also loaded on a specified well and used as a reference for data analysis and a built-in quality control measure. The quality and integrity of the RNA was determined through visual inspection of each electropherogram. In general, only samples with a RIN (RNA integrity number) of 7 or greater, as determined by the Bioanalyzer, were used for gene arrays. This quality control analysis was repeated following the labeling procedure to ensure that the probes were efficiently labeled and had the correct size before hybridization to the chips. All samples that were run on genome wide arrays were obtained as independent duplicates from two individual mice.
Microarray Data Interpretation: Gene expression was compared between untreated and treated total RNA samples. “Transition” data, which represent the change in expression level for a given gene, are presented as a “weighted difference.” Changes in gene expression level were considered to be significant when the adjusted p values were less than […]. The “gene expression signature” arbitrarily includes only those genes that were transcribed with a weighted increase of 2.0 or greater, which was sustained over the subsequent time points tested.
The weighted difference is a metric that takes into account both the variability between different time-points and the variability between replicates at the same time-point. The calculations are performed for each time-point transition, i.e., 30 minutes vs. 1 hour, 1 hour vs. 2 hours, etc. There are two steps to the calculation: the calculation of a modified Euclidean difference between the two time-points, and the calculation of the Euclidean difference between the replicates within each time-point. The first measure is an unweighted difference, while the final metric given in the spreadsheet “weights” this difference by taking into account the second measure.
In a Euclidean difference calculation, each data point is considered as a vector in a multi-dimensional space, and the actual straight-line distance between the data points is calculated. […]

[1] = First 15 min after DBP application

## CCCCOC(=O)c1ccccc1C(=O)OCCCC [DBP, dibutylphthalate]
2 hr
  DBP Unique genes, number: 42
  DBP-Induced genes (≧2x Increased Expression), number: 112
  TLR-Induced among DBP-induced genes, number: 70^#
2 hr to 4 hr Transition
  Acot5 Change in Gene Expression (Weighted Difference): 2.191
  Akr1c18 Change in Gene Expression (Weighted Difference): −0.08563
  Areg Change in Gene Expression (Weighted Difference): 3.401
  Atp2c2 Change in Gene Expression (Weighted Difference): −0.002189
  Btg2 Change in Gene Expression (Weighted Difference): 1.009
  Ccr4 Change in Gene Expression (Weighted Difference): 0.03996
  Cdh10 Change in Gene Expression (Weighted Difference): −0.008005
  Cish Change in Gene Expression (Weighted Difference): 0.7204
  Cox17 Change in Gene Expression (Weighted Difference): −0.1255
  Ctgf Change in Gene Expression (Weighted Difference): 2.29
  Cysltr1 Change in Gene Expression (Weighted Difference): −0.8049
  Ddx21 Change in Gene Expression (Weighted Difference): 2.413
  Dlx4 Change in Gene Expression (Weighted Difference): 3.05
  Dusp14 Change in Gene Expression (Weighted Difference): 2.291
  Egr1 Change in Gene Expression (Weighted Difference): 2.348
  Egr2 Change in Gene Expression (Weighted Difference): 0.5934
  Fam115c Change in Gene Expression (Weighted Difference): 2.163
  Fbxo42 Change in Gene Expression (Weighted Difference): 2.267
  Fosl1 Change in Gene Expression (Weighted Difference): 4.432
  Frk Change in Gene Expression (Weighted Difference): −0.0494
  Gart Change in Gene Expression (Weighted Difference): 5.268
  Gbp8 Change in Gene Expression (Weighted Difference): −0.04223
  Gem Change in Gene Expression (Weighted Difference): 1.546
  Gimap7 Change in Gene Expression (Weighted Difference): 0.03205
  Has1 Change in Gene Expression (Weighted Difference): 2.54
  Ier3 Change in Gene Expression (Weighted Difference): 4.521
  Il10 Change in Gene Expression (Weighted Difference): 2.932
  Il10ra Change in Gene Expression (Weighted Difference): 0.1254
  Il20 Change in Gene Expression (Weighted Difference): 2.876
  Irf4 Change in Gene Expression (Weighted Difference): 3.715
  Jun Change in Gene Expression (Weighted Difference): 0.9971
  Junb Change in Gene Expression (Weighted Difference): 0.9119
  Kcnk1 Change in Gene Expression (Weighted Difference): 32.8
  LOC100046066 Change in Gene Expression (Weighted Difference): −0.1464
  LOC100046410 Change in Gene Expression (Weighted Difference): 2.134
  Lcn5 Change in Gene Expression (Weighted Difference): 3.183
  Madcam1 Change in Gene Expression (Weighted Difference): −0.01081
  Maml1 Change in Gene Expression (Weighted Difference): 3.564
  Map3k11 Change in Gene Expression (Weighted Difference): 2.249
  Med17 Change in Gene Expression (Weighted Difference): −2.259E−05
  Mkks Change in Gene Expression (Weighted Difference): −0.2406
  Mndal Change in Gene Expression (Weighted Difference): 0.09548
  Mtap7d1 Change in Gene Expression (Weighted Difference): 6.99
  Myc Change in Gene Expression (Weighted Difference): 1.296
  Myh3 Change in Gene Expression (Weighted Difference): 8.012
  Myl2 Change in Gene Expression (Weighted Difference): 12.2
  N6amt2 Change in Gene Expression (Weighted Difference): −0.02824
  Nedd4l Change in Gene Expression (Weighted Difference): 2.067
  Nr4a1 Change in Gene Expression (Weighted Difference): 4.572
  P2ry1 Change in Gene Expression (Weighted Difference): −0.2494
  Palmd Change in Gene Expression (Weighted Difference): 2.134
  Prf1 Change in Gene Expression (Weighted Difference): −0.1682
  Prss23 Change in Gene Expression (Weighted Difference): 6.983
  Pxmp4 Change in Gene Expression (Weighted Difference): 3.362
  Rai12 Change in Gene Expression (Weighted Difference): 6.683
  Rassf5 Change in Gene Expression (Weighted Difference): 2.519
  Sik1 Change in Gene Expression (Weighted Difference): 1.009
  Slc25a25 Change in Gene Expression (Weighted Difference): 2.285
  Slc39a8 Change in Gene Expression (Weighted Difference): 2.101
  Tiparp Change in Gene Expression (Weighted Difference): 2.281
  Tmed3 Change in Gene Expression (Weighted Difference): −0.1013
  Tmem51 Change in Gene Expression (Weighted Difference): 6.104
  Tnfaip8l1 Change in Gene Expression (Weighted Difference): 2.28
  Tnip1 Change in Gene Expression (Weighted Difference): 3.267
  Tnni1 Change in Gene Expression (Weighted Difference): 3.47
  Tnnt1 Change in Gene Expression (Weighted Difference): 2.946
  Trib1 Change in Gene Expression (Weighted Difference): 2.432
  Zfp36 Change in Gene Expression (Weighted Difference): 2.638
  Zfp326 Change in Gene Expression (Weighted Difference): 2.164
4 hr
  % Shared (DBP-induced genes also TLR-induced): 64%
  DBP Unique genes, number: 13
  DBP-Induced genes (≧2x Increased Expression), number: 36
  TLR-Induced among DBP-induced genes, number: 23^#
[1]
  Acot5 Change in Gene Expression (Weighted Difference): 2.251
  Akr1c18 Change in Gene Expression (Weighted Difference): 3.655
  Atp2c2 Change in Gene Expression (Weighted Difference): 5.815
  Btg2 Change in Gene Expression (Weighted Difference): 61.87
  Ccr4 Change in Gene Expression (Weighted Difference): 2.16
  Cdh10 Change in Gene Expression (Weighted Difference): 2.487
  Cish Change in Gene Expression (Weighted Difference): 2.011
  Cox17 Change in Gene Expression (Weighted Difference): 2.318
  Cysltr1 Change in Gene Expression (Weighted Difference): 7.656
  Egr1 Change in Gene Expression (Weighted Difference): 3.561
  Egr2 Change in Gene Expression (Weighted Difference): 2.003
  Frk Change in Gene Expression (Weighted Difference): 6.498
  Gbp8 Change in Gene Expression (Weighted Difference): 4.073
  Gem Change in Gene Expression (Weighted Difference): 2.491
  Gimap7 Change in Gene Expression (Weighted Difference): 4.789
  Ier3 Change in Gene Expression (Weighted Difference): 5.581
  Il10ra Change in Gene Expression (Weighted Difference): 2.325
  Jun Change in Gene Expression (Weighted Difference): 6.095
  Junb Change in Gene Expression (Weighted Difference): 4.5
  LOC100046066 Change in Gene Expression (Weighted Difference): 2.503
  Madcam1 Change in Gene Expression (Weighted Difference): 4.39
  Med17 Change in Gene Expression (Weighted Difference): 3.949
  Mkks Change in Gene Expression (Weighted Difference): 11.97
  Mndal Change in Gene Expression (Weighted Difference): 2.311
  Myc Change in Gene Expression (Weighted Difference): 24.16
  N6amt2 Change in Gene Expression (Weighted Difference): 3.347
  Nr4a1 Change in Gene Expression (Weighted Difference): 5.48
  P2ry1 Change in Gene Expression (Weighted Difference): 2.279
  Prf1 Change in Gene Expression (Weighted Difference): 7.177
  Sik1 Change in Gene Expression (Weighted Difference): 3.072
  Slc39a8 Change in Gene Expression (Weighted Difference): 3.193
  Tmed3 Change in Gene Expression (Weighted Difference): 2.37
  Zfp36 Change in Gene Expression (Weighted Difference): 4.19
Total
  % Shared (DBP-induced genes also TLR-induced): 64%
  DBP Unique genes, number: 200
  DBP-Induced genes (≧2x Increased Expression), number: 561 (33*)
  TLR-Induced among DBP-induced genes, number: 361 (340^#)
